Data published in patent publication US8754115B2, “Fungicidal pyrazoles” (E I du Pont de Nemours and Company, priority 2010, dated 2014).
Marks after values point to notes of the source that are not given here.

Columns and labels:
Type in all cases: in vivo
[1] = system: Botrytis cinerea; assay: Test A: preventive spray on tomato seedlings, visual disease rating (tomato Botrytis)
From the text: (§1) General protocol for preparing test suspensions for Tests A-F: the test compounds were first dissolved in acetone in an amount equal to 3% of the final volume and then suspended at the desired concentration (in ppm) in acetone and purified water (50/50 mix by volume) containing 250 ppm of the surfactant Trem® 014 (polyhydric alcohol esters). The resulting test suspensions were then used in Tests A-F. Spraying a 200 ppm test suspension to the point of run-off on the test plants was the equivalent of a rate of 800 g/ha. Unless otherwise indicated, the rating values indicate a 200 ppm test suspension was used. (An asterisk “*” next to the rating value indicates a 40 ppm test suspension was used.)
The test suspension was sprayed to the point of run-off on tomato seedlings. The following day the seedlings were inoculated with a spore suspension of Botrytis cinerea (the causal agent of tomato Botrytis) and incubated in saturated atmosphere at 20° C. for 48 h, and then moved to a growth chamber at 24° C. for 3 days, after which time visual disease ratings were made.
(§2) Results for Tests A-F are given in Table A. In the Table, a rating of 100 indicates 100% disease control and a rating of 0 indicates no disease control (relative to the controls). A dash (-) indicates no test results. An asterisk “*” next to the rating value indicates a 40 ppm test suspension was used.

[2] = system: Alternaria solani; assay: Test B: preventive spray on tomato seedlings, visual disease rating (tomato early blight)
From the text: as §1
The test suspension was sprayed to the point of run-off on tomato seedlings. The following day the seedlings were inoculated with a spore suspension of Alternaria solani (the causal agent of tomato early blight) and incubated in a saturated atmosphere at 27° C. for 48 h, and then moved to a growth chamber at 20° C. for 5 days, after which time visual disease ratings were made.
as §2

[3] = system: Septoria nodorum; assay: Test C: preventive spray on wheat seedlings, visual disease rating (Septoria glume blotch)
From the text: as §1
(§3) The test suspension was sprayed to the point of run-off on wheat seedlings. The following day the seedlings were inoculated with a spore suspension of Septoria nodorum (the causal agent of Septoria glume blotch) and incubated in a saturated atmosphere at 24° C. for 48 h, and then moved to a growth chamber at 20° C. for 6 days, after which time visual disease ratings were made.
as §2

[4] = system: Septoria tritici; assay: Test D: preventive spray on wheat seedlings, visual disease rating (wheat leaf blotch)
From the text: as §1
as §3, with “tritici” for “nodorum”, “wheat leaf” for “Septoria glume”, “in” for “in a”, “19” for “6”
as §2

[5] = system: Puccinia recondite f. sp. tritici; assay: Test E2: preventive spray on wheat seedlings, visual disease rating (wheat leaf rust)
From the text: as §1
as §3, with “Puccinia recondite f. sp. tritici” for “Septoria nodorum”, “wheat leaf rust)” for “Septoria glume blotch)”, “20°” for “24°”, “24” for “48”, “7” for “6”
as §2

[6] = system: Blumeria graminis f. sp. tritici; assay: Test F: preventive spray on wheat seedlings, visual disease rating (wheat powdery mildew)
From the text: as §1
The test suspension was sprayed to the point of run-off on wheat seedlings. The following day the seedlings were inoculated with a spore dust of Blumeria graminis f. sp. tritici, (also known as Erysiphe graminis f. sp. tritici, the causal agent of wheat powdery mildew) and incubated in a growth chamber at 20° C. for 8 days, after which time visual disease ratings were made.
as §2

[7] = system: Puccinia recondite f. sp. tritici; assay: Test E1: curative spray on wheat seedlings after inoculation, visual disease rating (wheat leaf rust)
From the text: as §1
Wheat seedlings were inoculated with a spore suspension of Puccinia recondite f. sp. tritici (the causal agent of wheat leaf rust) and incubated in a saturated atmosphere at 20° C. for 24 h, and then moved to a growth chamber at 20° C. for 2 days. After 2 days, the test suspension was sprayed to the point of run-off on the wheat seedlings, and then the seedlings were moved back to the growth chamber at 20° C. for 6 days. Upon removal, visual disease ratings were made.
as §2

[8] = no asterisk: standard test suspension, not 40 ppm, 100 = 100% disease control, 0 = none
[9] = no asterisk: standard test suspension, not 40 ppm
[10] = asterisk: 40 ppm test suspension

Compound	Test B rating (% disease control) [2, 9]	Test C rating (% disease control) [3, 9]	Test D rating (% disease control) [4, 9]	Test E2 rating (% disease control) [5, 9]	Test F rating (% disease control) [6, 9]	Test A rating (% disease control) [1, 10]	Test C rating (% disease control) [3, 10]	Test D rating (% disease control) [4, 10]	Test E2 rating (% disease control) [5, 10]	Test F rating (% disease control) [6, 10]	other results
Cc1nn(C)c(-c2c(F)cccc2Cl)c1C(O)c1ccc(F)cc1Br (stereo not shown) [compound 37]	99%	100%	100%	100%	100%						Test A rating (% disease control) [1, 8]: 100%
Cc1nn(C)c(-c2c(Cl)cccc2Cl)c1C(O)c1ccc(F)cc1F (stereo not shown) [compound 74]	100%	92%	99%	99%	98%						Test E1 rating (% disease control) [7, 9]: 0%
COc1ccc(C(O)c2c(OC)nn(C)c2-c2c(F)cccc2Cl)c(F)c1 (stereo not shown) [compound 143]						100* %	0* %	100* %	99* %	98* %	
Cc1nn(C)c(-c2ccc(F)cc2Cl)c1Nc1ccc(F)cc1F [compound 49]						100* %	0* %	96* %	74* %	87* %	Test B rating (% disease control) [2, 10]: 0* %
Cc1nn(C)c(-c2ccc(F)cc2F)c1C(O)c1ccc(F)cc1F (stereo not drawn) [Compound 72, α-(2,4-difluorophenyl)-5-(2,4-difluorophenyl)-1,3-dimethyl-1H-pyrazole-4-methanol]											pest or weed control at 40 ppm ([2]; Alternaria solani, 168 h, asterisk: 40 ppm test suspension): 53%; pest or weed control at 40 ppm ([3]; Parastagonospora nodorum, 192 h, asterisk: 40 ppm test suspension): 0%; pest or weed control at 40 ppm ([4]; Zymoseptoria tritici, 504 h, asterisk: 40 ppm test suspension): 100%; pest or weed control at 40 ppm ([7]; 144 h, asterisk: 40 ppm test suspension): 18%; pest or weed control at 40 ppm ([5]; 192 h, asterisk: 40 ppm test suspension): 96%; pest or weed control at 40 ppm ([6]; Blumeria graminis, 192 h, asterisk: 40 ppm test suspension): 98%
Cc1nn(C)c(-c2ccc(F)cc2F)c1C(O)c1ccc(F)cc1Cl (stereo not shown) [compound 71]							73* %	100* %	99* %	99* %	Test B rating (% disease control) [2, 10]: 78* %; Test E1 rating (% disease control) [7, 10]: 88* %
Cc1nn(C)c(-c2c(F)cccc2Cl)c1C(O)c1ccc(Cl)cc1Cl (stereo not shown) [compound 90]					100%		99* %	100* %	100* %		Test B rating (% disease control) [2, 10]: 100* %; Test E1 rating (% disease control) [7, 10]: 74* %
Cc1nn(C)c(-c2ccc(Cl)cc2Cl)c1C(=O)c1ccc(F)cc1F [compound 89]	0%	0%	93%	89%	100%						Test E1 rating (% disease control) [7, 9]: 0%
Cc1nn(C)c(-c2ccccc2I)c1C(=O)c1ccc(F)cc1Br [compound 81]	46%	0%	0%	0%	99%						Test A rating (% disease control) [1, 8]: 54%
COc1ccc(C(O)c2c(OC)nn(C)c2-c2c(F)cccc2Cl)c(Cl)c1 (stereo not shown) [compound 142]						100* %	60* %	100* %	100* %	100* %	
COc1nn(C)c(-c2c(F)cccc2Cl)c1C(O)c1c(F)ccc(F)c1Cl (stereo not shown) [compound 144]						78* %	0* %	100* %	100* %	98* %	
Cn1nc(Br)c(C(=O)c2ccc(F)cc2F)c1-c1ccc(F)cc1Cl [compound 48]	0%	0%	99%	0%	0%						Test A rating (% disease control) [1, 8]: 26%
Cc1nn(C)c(-c2ccc(F)cc2Br)c1C(O)c1ccc(F)cc1F (stereo not shown) [compound 76]	99%	60%	100%	100%	100%						Test E1 rating (% disease control) [7, 9]: 99%
Cc1nn(C)c(-c2c(F)cccc2Cl)c1C(F)c1c(F)cc(F)cc1F (stereo not shown) [Compound 75]							87* %	100* %	100* %	99* %	Test B rating (% disease control) [2, 10]: 100* %; Test E1 rating (% disease control) [7, 10]: 74* %
Cc1nn(C)c(-c2ccc(F)cc2Br)c1C(=O)c1ccc(F)cc1F [compound 73]							0* %	14* %	0* %	34* %	Test B rating (% disease control) [2, 10]: 60* %; Test E1 rating (% disease control) [7, 10]: 0* %
Cn1nc(OC(F)F)c(C(O)c2ccc(F)cc2Cl)c1-c1c(F)cccc1F (stereo not shown) [compound 128]						43* %	0* %	100* %	85* %	56* %	
COc1nn(C)c(-c2c(F)cccc2Cl)c1C(O)c1ccc(F)cc1C (stereo not shown) [compound 140]						100* %	99* %	100* %	99* %	100* %	
Cc1nn(C)c(-c2ccccc2I)c1C(O)c1ccc(F)cc1Br (stereo not shown) [compound 88]	0%	0%	99%	68%	89%						Test E1 rating (% disease control) [7, 9]: 0%
COc1nn(C)c(-c2c(F)cccc2Cl)c1C(O)c1c(F)ccc(F)c1F (stereo not shown) [compound 145]						26* %	0* %	35* %	82* %	73* %	
COc1nn(C)c(-c2c(F)cc(F)cc2Cl)c1C(O)c1ccc(F)cc1Cl (stereo not shown) [compound 141]						100* %	97* %	100* %	99* %	99* %	
Cc1nn(C)c(-c2c(Cl)cncc2Cl)c1C(=O)c1ccc(F)cc1Cl [compound 96]						60* %	0* %	0* %	0* %	26* %	Test B rating (% disease control) [2, 10]: 0* %
Cn1nc(Br)c(C(O)c2ccc(F)cc2F)c1-c1c(F)cccc1Cl (stereo not shown) [compound 131]			100%	100%	98%						Test A rating (% disease control) [1, 8]: 98%
Cn1nc(Cl)c(C(O)c2ccc(F)cc2Br)c1-c1c(F)cccc1Cl (stereo not shown) [compound 134]			100%	100%	99%						Test A rating (% disease control) [1, 8]: 100%
